How the values were obtained:
[1] = target: T1, HRI (Homo sapiens, UniProt Q9BQI3); assay: radiometric HotSpot kinase assay; format: biochemical; conditions: 10 μM compound, 10 μM ATP; read-out: % Enzyme inhibition at 10 μM, HRI
T1 construct: purchased Reaction Biology Corporation (Malvern, PA)
Protocol: (§1) Compounds 1–9 were screened in a radiometric […] kinase assay against human GCN2 and other kinases involved in the UPR and ISR pathways (Table 1). […] The most soluble of the potent tool compounds (1 and 2) were selected for in vitro cell-based assays where the phosphorylation of eIF2α (p-eIF2α) was used as a readout for GCN2 inhibition.
(§2) In vitro compound profiling for recombinant GCN2, PERK, HRI, PKR, or IRE1 kinases were performed at Reaction Biology Corporation (Malvern, PA) using the HotSpot kinase assay. Briefly, all compounds provided for testing were dissolved in 10 mM DMSO stock solutions. Serial dilutions were conducted by epMotion 5070 in DMSO. Specific kinase/substrate mixtures and required cofactors were prepared in reaction buffer (20 mM Hepes (pH 7.5), 10 mM MgCl2, 1 mM EGTA, 0.02% Brij35, 0.02 mg/ml BSA, 0.1 mM Na3VO4, 2 mM DTT, 1% DMSO). Compounds were added to the kinase reaction mixture by Acoustic technology (Echo550; nanoliter range) and incubated for 20 min at room temperature. The kinase reaction was initiated by adding ^33P ATP to a final concentration of 10 μM for single point kinase activity reading or to the ATP Km of GCN2 for IC50 readings. The reaction was incubated or 2 h at room temperature and kinase activity was detected by filter-binding method. IC50 values and curves were generated with GraphPad Prism 7 (GraphPad software).

[2] = target: T2, IRE1 (Homo sapiens, UniProt O75460); assay: radiometric HotSpot kinase assay; format: biochemical; conditions: 10 μM compound, 10 μM ATP; read-out: % Enzyme inhibition at 10 μM, IRE1
T2 construct: purchased Reaction Biology Corporation (Malvern, PA)
T2 sequence (O75460 19-977): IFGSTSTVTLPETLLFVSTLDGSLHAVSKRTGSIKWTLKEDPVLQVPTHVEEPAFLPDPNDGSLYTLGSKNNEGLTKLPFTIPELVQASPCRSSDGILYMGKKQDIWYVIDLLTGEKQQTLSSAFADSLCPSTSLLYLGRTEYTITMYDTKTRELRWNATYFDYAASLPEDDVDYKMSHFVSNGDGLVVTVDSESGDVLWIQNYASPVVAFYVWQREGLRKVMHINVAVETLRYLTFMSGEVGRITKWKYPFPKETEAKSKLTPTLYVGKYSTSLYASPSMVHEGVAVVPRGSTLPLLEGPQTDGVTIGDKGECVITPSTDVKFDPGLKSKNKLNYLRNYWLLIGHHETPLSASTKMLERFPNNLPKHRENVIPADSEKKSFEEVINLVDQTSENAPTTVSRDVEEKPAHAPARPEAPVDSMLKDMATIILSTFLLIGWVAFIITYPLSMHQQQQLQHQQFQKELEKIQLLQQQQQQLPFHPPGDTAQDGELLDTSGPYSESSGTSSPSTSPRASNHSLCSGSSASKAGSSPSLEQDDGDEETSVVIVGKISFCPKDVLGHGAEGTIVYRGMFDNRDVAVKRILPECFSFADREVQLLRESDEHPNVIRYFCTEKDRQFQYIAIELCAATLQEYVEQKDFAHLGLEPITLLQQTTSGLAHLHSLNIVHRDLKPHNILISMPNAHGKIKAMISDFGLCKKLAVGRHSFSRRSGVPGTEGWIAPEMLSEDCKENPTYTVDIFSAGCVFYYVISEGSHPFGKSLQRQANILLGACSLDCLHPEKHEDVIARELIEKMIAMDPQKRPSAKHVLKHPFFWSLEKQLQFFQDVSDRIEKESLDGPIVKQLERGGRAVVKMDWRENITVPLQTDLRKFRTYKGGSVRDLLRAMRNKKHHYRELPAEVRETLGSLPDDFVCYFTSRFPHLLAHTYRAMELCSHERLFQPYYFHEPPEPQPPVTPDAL
Protocol: as §1, §2

[3] = target: standard panel of 50 protein kinases; assay: Broad kinase panel screen, whole panel; format: binding; conditions: 0.5 μM
Protocol: as §1
(§3) Compound 2 was screened against a standard panel of 50 protein kinases by Luceome Biotechnologies (Tucson, AZ). In brief, Compound 2 was dissolved and diluted in DMSO to a concentration of 12.5 μM from a 10 mM stock solution. As a control, compound 2 was evaluated for false positive against split-luciferase. For kinase assays, each C-terminal half of firefly luciferase linked kinase (Cfluc-Kinase) was translated along with the coiled coil Fos attached to the N-terminal fragment (Nfluc) (Fos-Nfluc) using rabbit reticulocyte lysate at 30 °C for 90 min. 24 µL aliquot of this lysate containing 1 µL of either DMSO or Compound 2 (at a final concentration 0.5 μM) was incubated for 30 minutes at room temperature followed by 1 hour incubation in the presence of a kinase specific probe. Finally, 80 µL of luciferin assay reagent was added and luminescence was immediately measured on a luminometer. Compound 2 was screened in duplicate against each kinase.
(§4) The % Inhibition and % Activity Remaining was calculated using the following equations: […]

[4] = target: T3, RSK2/RPS6KA3 (Homo sapiens, UniProt P51812); assay: Broad kinase panel screen (split-luciferase); format: binding; conditions: RSK2/RPS6KA3, 0.5 uM
T3 construct: purchased Luceome Biotechnologies
T3 sequence (P51812 whole entry): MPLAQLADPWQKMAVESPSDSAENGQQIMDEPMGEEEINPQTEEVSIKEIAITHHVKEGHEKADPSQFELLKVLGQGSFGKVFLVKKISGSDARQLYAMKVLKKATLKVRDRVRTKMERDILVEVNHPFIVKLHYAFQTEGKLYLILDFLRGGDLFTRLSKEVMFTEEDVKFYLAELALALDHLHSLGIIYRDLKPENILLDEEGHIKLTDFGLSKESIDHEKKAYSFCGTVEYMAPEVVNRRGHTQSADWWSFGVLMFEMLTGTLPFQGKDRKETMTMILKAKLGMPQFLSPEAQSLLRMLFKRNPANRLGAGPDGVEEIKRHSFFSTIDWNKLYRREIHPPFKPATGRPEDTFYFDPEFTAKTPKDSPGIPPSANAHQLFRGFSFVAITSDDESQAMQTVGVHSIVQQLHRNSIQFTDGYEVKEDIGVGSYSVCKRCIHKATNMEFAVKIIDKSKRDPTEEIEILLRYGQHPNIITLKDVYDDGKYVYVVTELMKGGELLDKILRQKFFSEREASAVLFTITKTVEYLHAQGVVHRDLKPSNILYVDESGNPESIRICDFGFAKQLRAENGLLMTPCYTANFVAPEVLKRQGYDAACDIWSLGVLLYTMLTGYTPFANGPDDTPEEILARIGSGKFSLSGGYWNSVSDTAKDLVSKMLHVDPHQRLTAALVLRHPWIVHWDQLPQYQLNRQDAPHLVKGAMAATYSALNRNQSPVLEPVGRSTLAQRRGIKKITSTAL
Protocol: as §3, §4

[5] = target: T4, AMPK-a1/AMPK (Homo sapiens, UniProt Q13131); assay: Broad kinase panel screen (split-luciferase); format: binding
T4 construct: purchased Luceome Biotechnologies
T4 sequence (Q13131 whole entry): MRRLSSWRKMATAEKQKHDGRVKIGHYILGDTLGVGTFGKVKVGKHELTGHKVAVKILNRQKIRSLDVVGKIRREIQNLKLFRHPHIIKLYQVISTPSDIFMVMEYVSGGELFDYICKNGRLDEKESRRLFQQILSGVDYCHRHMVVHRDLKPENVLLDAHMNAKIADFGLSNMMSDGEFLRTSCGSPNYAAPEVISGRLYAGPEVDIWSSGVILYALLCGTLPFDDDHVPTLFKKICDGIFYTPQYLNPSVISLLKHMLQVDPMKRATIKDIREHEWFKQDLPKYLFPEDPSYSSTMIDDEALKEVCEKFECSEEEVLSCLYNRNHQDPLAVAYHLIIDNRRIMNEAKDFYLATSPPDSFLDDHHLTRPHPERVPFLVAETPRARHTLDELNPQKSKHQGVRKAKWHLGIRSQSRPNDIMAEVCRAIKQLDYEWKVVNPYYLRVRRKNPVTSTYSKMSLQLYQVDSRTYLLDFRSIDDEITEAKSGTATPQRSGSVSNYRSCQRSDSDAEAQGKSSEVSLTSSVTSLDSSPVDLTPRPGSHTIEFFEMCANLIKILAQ
Protocol: as §3, §4

[6] = target: T5, ACVR2A/ACVR2 (Homo sapiens, UniProt P27037); assay: Broad kinase panel screen (split-luciferase); format: binding; conditions: ACVR2A/ACVR2, 0.5 uM
T5 construct: purchased Luceome Biotechnologies
Protocol: as §3, §4

[7] = target: T6, EPHA5 (Homo sapiens, UniProt P54756); assay: Broad kinase panel screen (split-luciferase); format: binding; conditions: EPHA5, 0.5 uM
T6 construct: purchased Luceome Biotechnologies
Protocol: as §3, §4

[8] = target: T7, MST2 (Homo sapiens, UniProt Q13188); assay: Broad kinase panel screen (split-luciferase); format: binding; conditions: MST2, 0.5 uM
T7 construct: purchased Luceome Biotechnologies
Protocol: as §3, §4

[9] = target: T8, DDR1 (Homo sapiens, UniProt Q08345); assay: Broad kinase panel screen (split-luciferase); format: binding; conditions: DDR1, 0.5 uM
T8 construct: purchased Luceome Biotechnologies
Protocol: as §3, §4

[10] = target: T9, SIK1/SNF1LK (Homo sapiens, UniProt P57059); assay: Broad kinase panel screen (split-luciferase); format: binding
T9 construct: purchased Luceome Biotechnologies
Protocol: as §3, §4

[11] = target: T10, CDK5 (Homo sapiens, UniProt Q00535); assay: Broad kinase panel screen (split-luciferase); format: binding; conditions: CDK5, 0.5 uM
T10 construct: purchased Luceome Biotechnologies
Protocol: as §3, §4

[12] = target: T11, YSK1 (Homo sapiens, UniProt O00506); assay: Broad kinase panel screen (split-luciferase); format: binding; conditions: YSK1, 0.5 uM
T11 construct: purchased Luceome Biotechnologies
Protocol: as §3, §4

[13] = target: T12, FLT3 (Homo sapiens, UniProt P36888); assay: Broad kinase panel screen (split-luciferase); format: binding; conditions: FLT3, 0.5 uM
T12 construct: purchased Luceome Biotechnologies
T12 sequence (P36888 27-993): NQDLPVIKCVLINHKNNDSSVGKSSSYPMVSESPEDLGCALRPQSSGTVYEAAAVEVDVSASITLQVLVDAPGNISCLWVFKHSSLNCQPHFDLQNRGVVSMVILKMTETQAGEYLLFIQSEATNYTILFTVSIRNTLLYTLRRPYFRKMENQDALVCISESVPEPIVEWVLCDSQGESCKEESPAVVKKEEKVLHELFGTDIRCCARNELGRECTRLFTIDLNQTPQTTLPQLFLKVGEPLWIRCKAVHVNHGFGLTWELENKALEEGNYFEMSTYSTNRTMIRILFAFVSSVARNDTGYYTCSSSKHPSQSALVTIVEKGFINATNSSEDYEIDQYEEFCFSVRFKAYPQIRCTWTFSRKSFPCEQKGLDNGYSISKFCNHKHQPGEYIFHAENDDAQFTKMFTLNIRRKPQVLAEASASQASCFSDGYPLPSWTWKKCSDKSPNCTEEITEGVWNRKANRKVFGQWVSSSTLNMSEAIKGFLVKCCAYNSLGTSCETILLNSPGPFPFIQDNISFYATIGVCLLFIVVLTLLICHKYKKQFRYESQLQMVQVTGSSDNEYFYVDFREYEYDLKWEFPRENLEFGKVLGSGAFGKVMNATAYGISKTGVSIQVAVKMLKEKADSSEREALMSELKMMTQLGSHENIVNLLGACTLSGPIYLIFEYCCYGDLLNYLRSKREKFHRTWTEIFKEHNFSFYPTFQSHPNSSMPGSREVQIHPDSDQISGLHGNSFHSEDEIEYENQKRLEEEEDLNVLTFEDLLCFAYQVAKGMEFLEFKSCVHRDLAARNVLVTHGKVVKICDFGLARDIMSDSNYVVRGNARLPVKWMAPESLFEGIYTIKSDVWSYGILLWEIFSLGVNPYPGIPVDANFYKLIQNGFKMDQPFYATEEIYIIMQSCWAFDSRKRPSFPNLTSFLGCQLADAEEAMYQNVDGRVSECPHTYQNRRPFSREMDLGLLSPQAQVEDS
Protocol: as §3, §4

[14] = target: T13, AKT1 (Homo sapiens, UniProt P31749); assay: Broad kinase panel screen (split-luciferase); format: binding; conditions: AKT1, 0.5 uM
T13 construct: purchased Luceome Biotechnologies
Protocol: as §3, §4

[15] = target: T14, MSK2/RPS6KA4 (Homo sapiens, UniProt O75676); assay: Broad kinase panel screen (split-luciferase); format: binding; conditions: MSK2/RPS6KA4, 0.5 uM
T14 construct: purchased Luceome Biotechnologies
Protocol: as §3, §4

[16] = target: T15, PLK4 (Homo sapiens, UniProt O00444); assay: Broad kinase panel screen (split-luciferase); format: binding; conditions: PLK4, 0.5 uM
T15 construct: purchased Luceome Biotechnologies
Protocol: as §3, §4

[17] = target: T16, FLT1/VEGFR1 (Homo sapiens, UniProt P17948); assay: Broad kinase panel screen (split-luciferase); format: binding; conditions: FLT1/VEGFR1, 0.5 uM
T16 construct: purchased Luceome Biotechnologies
Protocol: as §3, §4

[18] = target: T17, PTK2B/PYK2 (Homo sapiens, UniProt Q14289); assay: Broad kinase panel screen (split-luciferase); format: binding; conditions: PTK2B/PYK2, 0.5 uM
T17 construct: purchased Luceome Biotechnologies
Protocol: as §3, §4

[19] = target: T18, AKT2 (Homo sapiens, UniProt P31751); assay: Broad kinase panel screen (split-luciferase); format: binding; conditions: AKT2, 0.5 uM
T18 construct: purchased Luceome Biotechnologies
Protocol: as §3, §4

[20] = target: T19, IGF1R (Homo sapiens, UniProt P08069); assay: Broad kinase panel screen (split-luciferase); format: binding
T19 construct: purchased Luceome Biotechnologies
Protocol: as §3, §4

[21] = target: T20, AURKC (Homo sapiens, UniProt Q9UQB9); assay: Broad kinase panel screen (split-luciferase); format: binding
T20 construct: purchased Luceome Biotechnologies
Protocol: as §3, §4

[22] = target: T21, PIM1 (Homo sapiens, UniProt P11309); assay: Broad kinase panel screen (split-luciferase); format: binding; conditions: PIM1, 0.5 uM
T21 construct: purchased Luceome Biotechnologies
Protocol: as §3, §4

[23] = target: T22, HCK (Homo sapiens, UniProt P08631); assay: Broad kinase panel screen (split-luciferase); format: binding
T22 construct: purchased Luceome Biotechnologies
T22 sequence (P08631 whole entry): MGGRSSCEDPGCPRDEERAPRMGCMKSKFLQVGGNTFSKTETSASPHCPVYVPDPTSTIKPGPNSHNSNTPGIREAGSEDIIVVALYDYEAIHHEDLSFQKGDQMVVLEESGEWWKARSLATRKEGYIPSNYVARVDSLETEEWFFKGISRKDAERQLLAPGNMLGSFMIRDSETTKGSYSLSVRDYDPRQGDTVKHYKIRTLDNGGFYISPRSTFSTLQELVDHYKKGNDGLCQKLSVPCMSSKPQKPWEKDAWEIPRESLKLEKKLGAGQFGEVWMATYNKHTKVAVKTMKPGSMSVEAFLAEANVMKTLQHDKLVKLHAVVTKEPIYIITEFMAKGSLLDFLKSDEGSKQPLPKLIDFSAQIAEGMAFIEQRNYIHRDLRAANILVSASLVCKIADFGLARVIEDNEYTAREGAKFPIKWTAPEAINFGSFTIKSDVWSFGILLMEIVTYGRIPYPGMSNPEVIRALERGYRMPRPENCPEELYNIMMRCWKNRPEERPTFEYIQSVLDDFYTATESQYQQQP
Protocol: as §3, §4

[24] = target: T23, PDGFRB (Homo sapiens, UniProt P09619); assay: Broad kinase panel screen (split-luciferase); format: binding
T23 construct: purchased Luceome Biotechnologies
Protocol: as §3, §4

[25] = target: T24, DAPK3 (Homo sapiens, UniProt O43293); assay: Broad kinase panel screen (split-luciferase); format: binding; conditions: DAPK3, 0.5 uM
T24 construct: purchased Luceome Biotechnologies
T24 sequence (O43293 whole entry): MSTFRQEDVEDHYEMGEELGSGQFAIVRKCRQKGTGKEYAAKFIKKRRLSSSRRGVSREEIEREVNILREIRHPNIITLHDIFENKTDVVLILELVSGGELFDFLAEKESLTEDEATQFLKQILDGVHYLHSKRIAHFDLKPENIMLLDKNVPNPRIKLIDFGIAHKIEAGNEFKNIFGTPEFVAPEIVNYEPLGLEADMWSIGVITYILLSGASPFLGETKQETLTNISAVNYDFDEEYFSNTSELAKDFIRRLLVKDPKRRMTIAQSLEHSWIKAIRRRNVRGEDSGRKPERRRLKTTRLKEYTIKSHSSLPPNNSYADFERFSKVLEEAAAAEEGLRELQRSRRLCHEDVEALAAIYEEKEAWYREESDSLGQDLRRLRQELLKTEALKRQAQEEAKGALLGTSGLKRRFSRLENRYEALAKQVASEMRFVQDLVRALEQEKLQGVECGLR
Protocol: as §3, §4

[26] = target: T25, EPHB2 (Homo sapiens, UniProt P29323); assay: Broad kinase panel screen (split-luciferase); format: binding; conditions: EPHB2, 0.5 uM
T25 construct: purchased Luceome Biotechnologies
Protocol: as §3, §4

T1 sequence (Q9BQI3 whole entry): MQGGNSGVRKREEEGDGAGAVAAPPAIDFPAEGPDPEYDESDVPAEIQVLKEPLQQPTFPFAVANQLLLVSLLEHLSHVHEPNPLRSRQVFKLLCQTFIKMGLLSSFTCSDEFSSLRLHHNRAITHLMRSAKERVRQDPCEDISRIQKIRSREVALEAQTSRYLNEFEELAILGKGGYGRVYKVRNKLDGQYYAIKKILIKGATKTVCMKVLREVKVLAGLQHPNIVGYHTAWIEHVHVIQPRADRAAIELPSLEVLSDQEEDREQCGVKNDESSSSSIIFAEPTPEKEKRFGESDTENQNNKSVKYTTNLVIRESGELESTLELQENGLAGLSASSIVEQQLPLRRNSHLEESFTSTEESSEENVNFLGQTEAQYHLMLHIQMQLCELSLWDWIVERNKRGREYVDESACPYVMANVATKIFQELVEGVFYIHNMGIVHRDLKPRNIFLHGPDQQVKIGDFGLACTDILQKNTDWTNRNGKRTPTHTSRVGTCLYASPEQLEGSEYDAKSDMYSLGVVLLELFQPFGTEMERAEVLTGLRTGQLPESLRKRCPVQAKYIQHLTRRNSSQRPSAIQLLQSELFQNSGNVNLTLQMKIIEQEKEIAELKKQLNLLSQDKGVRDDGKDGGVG

Work on `CCn1cc(Nc2ncc3nnn(-c4ccc(C(=O)OC)cc4)c3n2)cn1` [Compound 1, Methyl 4-(5-((1-ethyl-1H-pyrazol-4-yl)amino)-3H-[1,2,3]triazolo[4,5-d]pyrimidin-3-yl)benzoate] yielded an inhibition at 10 µM [1] of 14% and an inhibition at 10 µM [2] of 37%.

For `CCOc1ccc(-n2nnc3cnc(Nc4cnn(CC)c4)nc32)cc1` [Compound 2, 3-(4-Ethoxyphenyl)-N-(1-ethyl-1H-pyrazol-4-yl)-3H-[1,2,3]triazolo[4,5-d]pyrimidin-5-amine], the inhibition at 10 µM [1] was < 10%, the inhibition at 10 µM [2] was 20% and the “kinase inhibition in standard broad kinase panel (in words)” value [3] was “no significant kinase inhibition”. It also gave a remaining activity at 0.5 µM [4] of 89.9%, a remaining activity at 0.5 µM [5] of 100% and a remaining activity at 0.5 µM [6] of 100%. For the same compound, the remaining activity at 0.5 µM [7] was 97.8%, the remaining activity at 0.5 µM [8] was 100% and the remaining activity at 0.5 µM [9] was 93.1%. For the same compound, the remaining activity at 0.5 µM [10] was 99.9%, the remaining activity at 0.5 µM [11] was 94.4% and the remaining activity at 0.5 µM [12] was 93.6%. The remaining activity at 0.5 µM [13] was 100%, the remaining activity at 0.5 µM [14] was 98.4% and the remaining activity at 0.5 µM [15] was 100%. The remaining activity at 0.5 µM [16] was 100%, the remaining activity at 0.5 µM [17] was 51.7% and the remaining activity at 0.5 µM [18] was 96%. The remaining activity at 0.5 µM [19] was 96.8%, the remaining activity at 0.5 µM [20] was 100% and the remaining activity at 0.5 µM [21] was 98.7%. For the same compound, the remaining activity at 0.5 µM [22] was 93.4%, the remaining activity at 0.5 µM [23] was 96% and the remaining activity at 0.5 µM [24] was 84.4%. It also gave a remaining activity at 0.5 µM [25] of 97.6% and a remaining activity at 0.5 µM [26] of 97.7%.
